Assay results as given in PubChem BioAssay (NCI).
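Growth conditions: 96-well plates. Treatment: test compound, 48 hours, 5 concentrations. Analysis: linear interpolation between bracketing concentrations; unreached endpoints set to highest concentration. TGI marks complete inhibition of growth.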

Assays:
Test in all cases: NCI tumour cell line growth inhibition, 48 h
LOX IMVI melanoma = tested on: LOX IMVI melanoma
HT29 colon = tested on: HT29 colon
CAKI-1 renal = tested on: CAKI-1 renal
HOP-62 NSCLC = tested on: HOP-62 NSCLC
SN12C renal = tested on: SN12C renal
HL-60(TB) leukemia = tested on: HL-60(TB) leukemia
IGROV1 ovarian = tested on: IGROV1 ovarian
OVCAR-8 ovarian = tested on: OVCAR-8 ovarian
RPMI-8226 leukemia = tested on: RPMI-8226 leukemia
786-0 renal = tested on: 786-0 renal
SF-268 CNS = tested on: SF-268 CNS
SK-MEL-5 melanoma = tested on: SK-MEL-5 melanoma
ACHN renal = tested on: ACHN renal
HCT-116 colon = tested on: HCT-116 colon
SK-MEL-28 melanoma = tested on: SK-MEL-28 melanoma
XF 498 CNS = tested on: XF 498 CNS
DMS 114 small cell lung = tested on: DMS 114 small cell lung
MALME-3M melanoma = tested on: MALME-3M melanoma
NCI-H460 lung = tested on: NCI-H460 lung
SK-OV-3 ovarian = tested on: SK-OV-3 ovarian
SK-MEL-2 melanoma = tested on: SK-MEL-2 melanoma
NCI-H23 lung = tested on: NCI-H23 lung
CCRF-CEM leukemia = tested on: CCRF-CEM leukemia
UACC-62 melanoma = tested on: UACC-62 melanoma
SNB-75 CNS = tested on: SNB-75 CNS
SNB-19 CNS = tested on: SNB-19 CNS
KM20L2 colon = tested on: KM20L2 colon
HCT-15 colon = tested on: HCT-15 colon
A498 renal = tested on: A498 renal
M14 melanoma = tested on: M14 melanoma
SNB-78 CNS = tested on: SNB-78 CNS
EKVX NSCLC = tested on: EKVX NSCLC
TK-10 renal = tested on: TK-10 renal
UO-31 renal = tested on: UO-31 renal
LXFL 529 NSCLC = tested on: LXFL 529 NSCLC
OVCAR-4 ovarian = tested on: OVCAR-4 ovarian
RXF 393 renal = tested on: RXF 393 renal
UACC-257 melanoma = tested on: UACC-257 melanoma
SW-620 colon = tested on: SW-620 colon
MOLT-4 leukemia = tested on: MOLT-4 leukemia
SR leukemia = tested on: SR leukemia
NCI-H226 lung = tested on: NCI-H226 lung
COLO 205 colon = tested on: COLO 205 colon
SF-295 CNS = tested on: SF-295 CNS
DLD-1 colon = tested on: DLD-1 colon
K-562 leukemia = tested on: K-562 leukemia
SF-539 CNS = tested on: SF-539 CNS
U251 CNS = tested on: U251 CNS
HOP-92 NSCLC = tested on: HOP-92 NSCLC
OVCAR-3 ovarian = tested on: OVCAR-3 ovarian
HCC-2998 colon = tested on: HCC-2998 colon
KM12 colon = tested on: KM12 colon
OVCAR-5 ovarian = tested on: OVCAR-5 ovarian
A549 NSCLC = tested on: A549 NSCLC

Measured: TGI

Cc1ccc(NC(=O)C(=O)C(C2C(C)CC(=O)C2CC(=O)O)[N+](=O)[O-])cc1 (centres undefined)
> 100 µM: LOX IMVI melanoma | HT29 colon | CAKI-1 renal | HOP-62 NSCLC | SN12C renal | HL-60(TB) leukemia | IGROV1 ovarian | OVCAR-8 ovarian | RPMI-8226 leukemia | 786-0 renal | SF-268 CNS | SK-MEL-5 melanoma | ACHN renal | HCT-116 colon | SK-MEL-28 melanoma | XF 498 CNS | DMS 114 small cell lung | MALME-3M melanoma | NCI-H460 lung | SK-OV-3 ovarian | SK-MEL-2 melanoma | NCI-H23 lung | CCRF-CEM leukemia | UACC-62 melanoma | SNB-75 CNS | SNB-19 CNS | KM20L2 colon | HCT-15 colon | A498 renal | M14 melanoma | SNB-78 CNS | EKVX NSCLC | TK-10 renal | UO-31 renal | LXFL 529 NSCLC | OVCAR-4 ovarian | RXF 393 renal | UACC-257 melanoma | SW-620 colon | MOLT-4 leukemia | SR leukemia | NCI-H226 lung | COLO 205 colon | SF-295 CNS | DLD-1 colon | K-562 leukemia | SF-539 CNS | U251 CNS | HOP-92 NSCLC | OVCAR-3 ovarian | HCC-2998 colon | KM12 colon | OVCAR-5 ovarian | A549 NSCLC
